Key:
[1] = test system: AP-1; experiment: AP-1 luciferase reporter assay in HEK293 cells; assay type: cell-based; settings: HEK293, TPA 10 ng/ml 18 hours
Method: (§1) All expression plasmids were transiently transfected into HEK293 cells in a 96-well plate (0.1 μg/well) by using Effectene transfection reagent (Qiagen, Valencia, Calif.) according to the manufacturer's manual. HEK293 cells were maintained in Dulbecco's modified Eagle medium (Sigma, St. Louis, Mo.) supplemented with 10% fetal bovine serum (Atlanta Biologicals, Lawrenceville, Ga.) and incubated at 37° C. in a 5% CO2 incubator. After 24 hrs incubation, the medium was changed to DMEM with 0.2% FBS, and the transfectants were exposed to various concentrations of compound I and TPA (10 ng/ml). Cells were lysed with passive lysis buffer and the luciferase assay was performed using the Firefly-Luciferase reporter assay system (Promega, Madison, Wis.) and MLX Luminometer (Dynex Technology, Chantilly, Va.).
Three different luciferase reporter genes, AP-1 reporter containing four times TRE consensus originated from GCN4 and SRE reporter purchased from Stratagene (La Jolla, Calif.) respectively are as described previously (Suzukawa et al., Environ. Health Perspect., 2002, 110, 865-70). NFκB reporter is driven by five times NFκB responsive element inserted into Cis-reporter backbone (Stratagene, La Jolla, Calif.). Others include mouse COX-2 promoter region from −203 to +70 relative to the transcription site inserted into pTIS10L vector (Kim and Fischer, J. Biol. Chem., 1998, 273, 27686-94), human uPAR promoter region from −141 to +47 relative to transcription start site in pGL3 vector (Wang et al., Eur. J. Biochem., 2000, 267, 3248-54), and human VEGF promoter sequence from −2274 to +379 inserted into the pGL2 vector (Ding et al., J. Biol. Chem., 2006, 281, 9093-100). […]

[2] = test system: NFκB; experiment: NFκB luciferase reporter assay in HEK293 cells; assay type: cell-based; settings: at 1 to 8 μM, TPA 10 ng/ml 18 hours
Method: as §1
Three different luciferase reporter genes, AP-1 reporter containing four times TRE consensus originated from GCN4 and SRE reporter purchased from Stratagene (La Jolla, Calif.) respectively are as described previously (Suzukawa et al., Environ. Health Perspect., 2002, 110, 865-70). NFκB reporter is driven by five times NFκB responsive element inserted into Cis-reporter backbone (Stratagene, La Jolla, Calif.). Others include mouse COX-2 promoter region from −203 to +70 relative to the transcription site inserted into pTIS10L vector (Kim and Fischer, J. Biol. Chem., 1998, 273, 27686-94), human uPAR promoter region from −141 to +47 relative to transcription start site in pGL3 vector (Wang et al., Eur. J. Biochem., 2000, 267, 3248-54), and human VEGF promoter sequence from −2274 to +379 inserted into the pGL2 vector (Ding et al., J. Biol. Chem., 2006, 281, 9093-100).
To evaluate whether the compound I biological activity can imitate TAM67 specificity, three different transcriptional promoter reporters were used, AP-1, NFκB, and SRE (Serum response element) in luciferase reporter assays (FIG. 1A: The transfected cells were pre-treated with varied concentrations of compound I or DMSO for 1 hour before 18 hours stimulation by TPA (10 ng/ml) or DMSO as vehicle. An asterisk (*) indicates a separate experiment with NFκB dependent luciferase only. Assays were performed with two independent experiments each in quadruplicate.). All three activities were induced by TPA but only induction of AP-I and NFκB were inhibited by TAM67. The SRE reporter was used as a specificity control and indicator of cell proliferation. TPA-induced SRE activity was not repressed by TAM67 when coexpressed with the SRE-Luc reporter in HEK293 cells. The same concentration (10 ng/ml, 16.2 nM) and incubation time (18 hrs) were used for TPA induction as previously used for the high throughput screen (HTS) (Ruocco et al., J. Biomol. Screen., 2007, 12, 133-9) along with 1 h pretreatment of compound I. The screening results had tested concentrations as high as 40 μM compound I with cell numbers showing 95.5+/−6.2% of DMSO control (ave+/− sd, n=3) by the XTT assay in HEK293T cells.

[3] = biological target: T1, IKKβ (Homo sapiens, UniProt O14920); experiment: K-LISA IKKβ Inhibitor Screening Kit in vitro assay; assay type: biochemical; settings: 0.1 to 100 μM, incubated with ATP
T1 construct: purchased Calbiochem
T1 sequence (O14920 1-756): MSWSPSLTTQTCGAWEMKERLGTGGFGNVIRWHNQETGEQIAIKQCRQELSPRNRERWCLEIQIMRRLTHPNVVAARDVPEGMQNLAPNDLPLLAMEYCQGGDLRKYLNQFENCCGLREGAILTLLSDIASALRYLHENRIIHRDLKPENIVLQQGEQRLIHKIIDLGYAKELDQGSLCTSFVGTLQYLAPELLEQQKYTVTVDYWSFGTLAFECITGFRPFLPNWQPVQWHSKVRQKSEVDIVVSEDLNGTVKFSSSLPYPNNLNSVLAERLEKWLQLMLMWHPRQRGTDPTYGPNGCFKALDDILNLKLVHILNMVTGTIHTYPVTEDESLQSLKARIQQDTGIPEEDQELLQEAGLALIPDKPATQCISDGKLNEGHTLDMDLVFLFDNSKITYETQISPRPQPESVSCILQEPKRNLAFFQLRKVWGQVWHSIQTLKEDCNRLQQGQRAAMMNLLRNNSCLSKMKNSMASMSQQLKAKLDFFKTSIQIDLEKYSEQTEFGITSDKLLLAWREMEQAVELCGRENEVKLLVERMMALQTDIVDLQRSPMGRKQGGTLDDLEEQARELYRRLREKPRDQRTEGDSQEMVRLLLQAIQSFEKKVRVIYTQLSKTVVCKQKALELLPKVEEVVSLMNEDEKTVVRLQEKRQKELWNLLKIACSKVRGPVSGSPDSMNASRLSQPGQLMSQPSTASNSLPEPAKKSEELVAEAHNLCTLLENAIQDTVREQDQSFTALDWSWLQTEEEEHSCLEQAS
Method: In an attempt to determine whether compound I interferes with ATP binding to the catalytic site, the activity of compound I was measured with fully activated, phosphorylated IKKα or IKKβ. […] However, whether this compound interacts outside of the ATP binding pocket of IKK as an ATP non-competitive inhibitor similar to BMS-345541 is unknown. […] Luciferase activities with TPA induction alone were set at 100% and the relative activities with TPA in the presence of compounds are shown.

[4] = test system: SRE (Serum response element); experiment: SRE luciferase reporter assay in HEK293 cells; assay type: cell-based; settings: HEK293, TPA 10 ng/ml 18 hours
Method: as §1
Three different luciferase reporter genes, AP-1 reporter containing four times TRE consensus originated from GCN4 and SRE reporter purchased from Stratagene (La Jolla, Calif.) respectively are as described previously (Suzukawa et al., Environ. Health Perspect., 2002, 110, 865-70). NFκB reporter is driven by five times NFκB responsive element inserted into Cis-reporter backbone (Stratagene, La Jolla, Calif.). […]

Compound | Inhibition of TPA-induced AP-1 luciferase activity [1] | Inhibition of NFκB-Luciferase [2] | Inhibition of phosphorylation of IκBα peptide substrate catalyzed by IKKβ [3] | TPA-induced SRE luciferase activity [4]
Cc1ccc2nc(NCCN)c3ncc(C)n3c2c1 [BMS-345541, reference compound] | without inhibition | dose-dependent inhibition | no inhibition | 
O=C(O)c1cc(/N=N/c2ccc(S(=O)(=O)Nc3ccccn3)cc2)ccc1O [sulfasalazine, reference compound] |  |  |  | no sparing
